Where two headings read alike, the source gives them in different places.
Experiment: Phase I dose-escalating study, plasma pharmacokinetics in patients with solid tumor
Type: in vivo, human
Settings: human, plasma; for concentration at 3 h: nominal time 3 h; for concentration at 6 h: nominal time 6 h; for concentration at 8 h: nominal time 8 h; for concentration at 10 h: nominal time 10 h; for concentration at 4 h: nominal time 4 h; for concentration at 0 h: nominal time 0 h; for concentration at 1 h: nominal time 1 h; for concentration at 2 h: nominal time 2 h; for concentration at 20 h: nominal time 20 h; for concentration at 48 h: nominal time 48 h; for concentration at 72 h: nominal time 72 h; for concentration at 96 h: nominal time 96 h; for concentration at 144 h: nominal time 144 h; for AUC(0-t): read-out: AUC(0-24), mean (% CV); for Cmax: read-out: Cmax, mean (% CV); for Tmax: read-out: tmax, mean (% CV); for half-life: read-out: t½, mean (% CV) (converted)
Procedure: Cmax values, or maximum total plasma concentrations, of a compound of formula 1 can be measured according to techniques well known to those skilled in the art. For example, after a compound of formula 1 has been administered to a mammal, blood samples can be taken at fixed time points over a period of time (e.g. 24 hours) and the serum or plasma concentration of compound of formula 1 can be measured using standard analytical techniques known in the art. In vivo determinations Cmax can then be made by plotting the serum or plasma concentration of compound of formula 1 along the ordinate (y-axis) against time along the abscissa (x-axis).
The maleate salt of compound 1 was administered to human patients with solid tumor malignancies not amenable to conventional therapies in a Phase I dose-escalating multicenter study. The types of tumor malignancies included colorectal carcinoma, renal cell carcinoma, esophageal carcinoma, thymus carcinoma, mastocytosis, lung cancer and multiple endocrine neoplasia type II. Patients were treated in cohorts of 6 with escalating QD (once per day) doses of the maleate salt of compound 1 under fasting conditions. Each study cycle of 5 weeks consisted of 4 weeks of treatment followed by 1 week of rest (4/1 schedule), or continuous dosing without any rest period.
Full pharmacokinetic profiles were collected on Cycle 1 Day 1 (C1D1), Cycle 1 Day 28 (C1D28), and Cycle 2 Day 28 (C2D28). Preliminary pharmacokinetic parameters for the first 44 patients, i.e. the first 7 dosing groups, were estimated using nominal collection times and quality-controlled, non-quality assured bioanalytical data. The dosage amounts in Table 1A and Table 1B are free base equivalent amounts.

[1] = 150 mg QD, 150 mg QD 4/1 (n = 5), read-out: Mean plasma concentration following the last dose on cycle 1 day 28
[2] = 150 mg QD, 150 mg QD Continuous (n = 6), read-out: Mean plasma concentration following the last dose on cycle 1 day 28
[3] = 150 mg, 150 mg QD 4/1 (n = 5), read-out: Mean plasma concentration following the last dose on cycle 1 day 28
[4] = 150 mg, 150 mg QD (4/1), C1D1 (n = 7)
[5] = 150 mg, 150 mg QD (4/1), C1D28 (n = 5)
[6] = 150 mg, 150 mg QD (4/1), C2D28 (n = 4)
[7] = 150 mg, 150 mg QD Continuous (n = 6), read-out: Mean plasma concentration following the last dose on cycle 1 day 28
[8] = 200 mg QD, 200 mg QD 4/1 (n = 5), read-out: Mean plasma concentration following the last dose on cycle 1 day 28
[9] = 200 mg, 200 mg QD 4/1 (n = 5), read-out: Mean plasma concentration following the last dose on cycle 1 day 28
[10] = 200 mg, 200 mg QD (4/1), C1D1 (n = 6)

Q: What does the source list for `Cc1[nH]c(/C=C2\C(=O)Nc3ccc(F)cc32)c(C)c1C(=O)NC[C@H](O)CN1CCOCC1` [compound 1, 5-[(Z)-(5-fluoro-2-oxo-1,2-dihydro-3H-indol-3-ylidene)methyl]-N-[(2S)-2-hydroxy-3-morpholin-4-ylpropyl]-2,4-dimethyl-1H-pyrrole-3-carboxamide]?
A: concentration at 3 h [1]: 268 ng/mL; concentration at 6 h [1]: 161 ng/mL; concentration at 8 h [1]: 142 ng/mL; concentration at 10 h [1]: 132 ng/mL; concentration at 3 h [2]: 407 ng/mL; concentration at 4 h [2]: 519 ng/mL; concentration at 6 h [2]: 471 ng/mL; concentration at 8 h [2]: 404 ng/mL; concentration at 10 h [2]: 345 ng/mL; concentration at 0 h [3]: 99.8 ng/mL; concentration at 1 h [3]: 184 ng/mL; concentration at 2 h [3]: 252 ng/mL; concentration at 4 h [3]: 231 ng/mL; concentration at 20 h [3]: 42.9 ng/mL; concentration at 24 h (150 mg, 150 mg QD 4/1 (n = 5), nominal time 24 h, read-out: Mean plasma concentration following the last dose on cycle 1 day 28): 94.8 ng/mL; concentration at 48 h [3]: 31.2 ng/mL; concentration at 72 h [3]: 9.08 ng/mL; concentration at 96 h [3]: 4.17 ng/mL; concentration at 144 h [3]: 1.52 ng/mL; AUC(0-t) [4]: 3370 ng·h/mL; concentration at 24 h (150 mg, 150 mg QD (4/1), C1D1 (n = 7), read-out: C(trough, 24 h), mean (% CV)): 81.7 ng/mL; Cmax [4]: 421 ng/mL; Tmax [4]: 1.6 h; half-life [4]: 13.6 h; AUC(0-t) [5]: 2960 ng·h/mL; concentration at 24 h (150 mg, 150 mg QD (4/1), C1D28 (n = 5), read-out: C(trough, 24 h), mean (% CV)): 75.8 ng/mL; Cmax [5]: 299 ng/mL; Tmax [5]: 1.8 h; half-life [5]: 19.3 h; AUC(0-t) [6]: 3090 ng·h/mL; concentration at 24 h (150 mg, 150 mg QD (4/1), C2D28 (n = 4), read-out: C(trough, 24 h), mean (% CV)): 54.6 ng/mL; Cmax [6]: 269 ng/mL; Tmax [6]: 3 h; half-life [6]: 13.2 h; concentration at 0 h [7]: 124 ng/mL; concentration at 1 h [7]: 244 ng/mL; concentration at 2 h [7]: 453 ng/mL; concentration at 20 h [7]: 104 ng/mL; concentration at 24 h (150 mg, 150 mg QD Continuous (n = 6), nominal time 24 h, read-out: Mean plasma concentration following the last dose on cycle 1 day 28): 271 ng/mL; concentration at 3 h [8]: 396 ng/mL; concentration at 4 h [8]: 441 ng/mL; concentration at 6 h [8]: 463 ng/mL; concentration at 8 h [8]: 349 ng/mL; concentration at 10 h [8]: 361 ng/mL; concentration at 0 h [9]: 353 ng/mL; concentration at 1 h [9]: 408 ng/mL; concentration at 2 h [9]: 408 ng/mL; concentration at 20 h [9]: 189 ng/mL; concentration at 24 h (200 mg, 200 mg QD 4/1 (n = 5), nominal time 24 h, read-out: Mean plasma concentration following the last dose on cycle 1 day 28): 259 ng/mL; concentration at 48 h [9]: 87.6 ng/mL; concentration at 72 h [9]: 31.4 ng/mL; concentration at 96 h [9]: 13 ng/mL; concentration at 144 h [9]: 4.77 ng/mL; AUC(0-t) [10]: 3440 ng·h/mL; concentration at 24 h (200 mg, 200 mg QD (4/1), C1D1 (n = 6), read-out: C(trough, 24 h), mean (% CV)): 147 ng/mL; Cmax [10]: 262 ng/mL; Tmax [10]: 8.7 h

Source: patent US20090012085A1, “DOSAGE FORMS AND METHODS OF TREATMENT USING A TYROSINE KINASE INHIBITOR” (priority 2005, published 2009)
